Assays:
Test in all cases: relative viability (nuclei count vs DMSO), 5 days (fraction); higher = more cells survive
[1] = compound: C/C(=N\NC(=S)N1CCC1)/C2=CC=CC=N2 + COc1cc2c(Oc3ccc(NC(=O)C4(C(=O)Nc5ccc(F)cc5)CC4)cc3F)ccnc2cc1OCCCN1CCOCC1 [Foretinib] (partner 0.25 µM)
Outline: (§1)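 Lung cancer cell lines in 1536-well plates were dosed by pin tool the day after seeding, either with one drug alone or with a fixed anchor-drug dose plus five library-drug doses (not always all listed) in √10 steps. After 5 days, cells were fixed and their nuclei stained in one step (final 0.05% Triton X-100, 1% formaldehyde, 1 ug/ml Hoechst), then counted on 4× images. Relative viability is the nuclei count in treated wells divided by that in vehicle wells. Values are medians of duplicate plates.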

[2] = compound: C/C(=N\NC(=S)N1CCC1)/C2=CC=CC=N2 + Cc1nc(NC(=O)N2CCC[C@H]2C(N)=O)sc1-c1ccnc(C(C)(C)C(F)(F)F)c1 [Alpelisib] (partner 2 µM)
Outline: as §1

[3] = compound: C/C(=N\NC(=S)N1CCC1)/C2=CC=CC=N2 + Nc1nc2[nH]cc(CCc3ccc(C(=O)N[C@@H](CCC(=O)O)C(=O)O)cc3)c2c(=O)[nH]1 [Pemetrexed] (partner 0.2 µM)
Outline: as §1

[4] = compound: C/C(=N\NC(=S)N1CCC1)/C2=CC=CC=N2 + O=C(c1cc(Cc2n[nH]c(=O)c3ccccc23)ccc1F)N1CCN(C(=O)C2CC2)CC1 [Olaparib] (partner 8 µM)
Outline: as §1

Cell Line | relative viability ([1]; first compound 0.05 µM) | relative viability ([1]; first compound 0.1581 µM) | relative viability ([1]; first compound 0.5 µM) | relative viability ([1]; first compound 1.581 µM) | relative viability ([1]; first compound 5 µM) | relative viability ([2]; first compound 0.05 µM) | relative viability ([2]; first compound 0.1581 µM) | relative viability ([2]; first compound 0.5 µM) | relative viability ([2]; first compound 1.581 µM) | relative viability ([2]; first compound 5 µM) | relative viability ([3]; first compound 0.05 µM) | relative viability ([3]; first compound 0.1581 µM) | relative viability ([3]; first compound 0.5 µM) | relative viability ([3]; first compound 1.581 µM) | relative viability ([3]; first compound 5 µM) | relative viability ([4]; first compound 0.05 µM) | relative viability ([4]; first compound 0.1581 µM) | relative viability ([4]; first compound 0.5 µM) | relative viability ([4]; first compound 1.581 µM) | relative viability ([4]; first compound 5 µM)
NCI-H838 | 0.259 | 0.255 | 0.216 | 0.217 | 0.18 | 0.243 | 0.211 | 0.189 | 0.189 | 0.172 | 0.223 | 0.186 | 0.185 | 0.19 | 0.186 | 0.184 | 0.173 | 0.186 | 0.159 | 0.13
NCI-H1437 | 0.242 | 0.261 | 0.229 | 0.192 | 0.162 | 0.114 | 0.127 | 0.0974 | 0.0875 | 0.0851 | 0.174 | 0.169 | 0.193 | 0.171 | 0.126 | 0.226 | 0.213 | 0.235 | 0.143 | 0.119
NCI-H2170 | 0.871 | 0.341 | 0.312 | 0.199 | 0.203 | 0.747 | 0.731 | 0.177 | 0.173 | 0.17 | 0.235 | 0.208 | 0.202 | 0.155 | 0.116 | 0.487 | 0.575 | 0.161 | 0.124 | 0.124
LCLC-103H | 0.176 | 0.311 | 0.221 | 0.133 | 0.167 | 0.34 | 0.978 | 0.24 | 0.257 | 0.233 | 0.321 | 0.301 | 0.328 | 0.253 | 0.325 | 0.3 | 0.613 | 0.222 | 0.236 | 0.256
NCI-H441 | 0.314 | 0.236 | 0.238 | 0.174 | 0.167 | 0.159 | 0.173 | 0.174 | 0.166 | 0.146 | 0.16 | 0.162 | 0.129 | 0.154 | 0.118 | 0.167 | 0.136 | 0.125 | 0.113 | 0.138
SK-LU-1 | 0.214 | 0.19 | 0.221 | 0.149 | 0.172 | 0.209 | 0.163 | 0.19 | 0.146 | 0.196 | 0.293 | 0.28 | 0.282 | 0.187 | 0.246 | 0.162 | 0.175 | 0.22 | 0.135 | 0.15
BEN | 0.17 | 0.204 | 0.175 | 0.171 | 0.205 | 0.195 | 0.194 | 0.266 | 0.232 | 0.198 | 0.256 | 0.318 | 0.262 | 0.279 | 0.311 | 0.292 | 0.259 | 0.271 | 0.272 | 0.283
LC-2-ad | 0.225 | 0.309 | 0.267 | 0.227 | 0.235 | 0.126 | 0.109 | 0.107 | 0.104 | 0.0953 | 0.202 | 0.218 | 0.217 | 0.217 | 0.192 | 0.234 | 0.21 | 0.199 | 0.196 | 0.2
COR-L23 | 0.147 | 0.132 | 0.14 | 0.0938 | 0.0923 | 0.113 | 0.123 | 0.097 | 0.0558 | 0.0865 | 0.149 | 0.169 | 0.163 | 0.105 | 0.123 | 0.107 | 0.0921 | 0.0895 | 0.0916 | 0.105
RERF-LC-KJ | 0.292 | 0.261 | 0.297 | 0.28 | 0.259 | 0.212 | 0.234 | 0.23 | 0.205 | 0.256 | 0.211 | 0.231 | 0.235 | 0.191 | 0.222 | 0.255 | 0.248 | 0.274 | 0.271 | 0.255
NCI-H1915 | 0.366 | 0.675 | 0.216 | 0.192 | 0.173 | 0.501 | 1.08 | 0.174 | 0.157 | 0.143 | 0.128 | 0.142 | 0.163 | 0.133 | 0.126 | 0.155 | 0.12 | 0.127 | 0.122 | 0.137
NCI-H596 | 0.461 | 0.725 | 0.208 | 0.199 | 0.272 | 0.371 | 0.256 | 0.267 | 0.227 | 0.313 | 0.373 | 0.302 | 0.339 | 0.243 | 0.292 | 0.616 | 0.391 | 0.347 | 0.31 | 0.292
NCI-H2009 | 0.143 | 0.183 | 0.186 | 0.213 | 0.184 | 0.113 | 0.135 | 0.15 | 0.164 | 0.141 | 0.0997 | 0.122 | 0.134 | 0.15 | 0.122 | 0.0968 | 0.101 | 0.125 | 0.154 | 0.123
NCI-H2126 | 0.223 | 0.167 | 0.167 | 0.213 | 0.201 | 0.327 | 0.748 | 0.224 | 0.218 | 0.186 | 0.235 | 0.221 | 0.212 | 0.219 | 0.208 | 0.344 | 0.889 | 0.186 | 0.191 | 0.17
LXF-289 | 0.422 | 0.31 | 0.294 | 0.311 | 0.121 | 0.539 | 0.307 | 0.278 | 0.147 | 0.141 | 0.254 | 0.203 | 0.199 | 0.17 | 0.104 | 0.382 | 0.647 | 0.175 | 0.176 | 0.0913
PC-14 | 0.141 | 0.113 | 0.129 | 0.0971 | 0.0805 | 0.108 | 0.0754 | 0.067 | 0.0556 | 0.0881 | 0.0492 | 0.0611 | 0.0691 | 0.0506 | 0.0521 | 0.0569 | 0.064 | 0.0532 | 0.0383 | 0.0401

Source: the supplement of paper PMC10307832
